Tests used:
Ggt = assay: In vivo Assay: control of Ggt on wheat grown in pots of Ggt-infested soil, root disease rating; set-up: species or system Gaeumannomyces graminis var. tritici; settings: 0.5 mg active ingredient per pot, 'Bergen' or 'Anza' wheat in Ggt-infested soil, after four weeks, vs untreated control; for pest or weed control at 0.5 mg/pot: Gaeumannomyces graminis, 672 h, read-out: In vivo, percent disease control
Description: Compounds are tested for control of Ggt on ‘Bergen’ or ‘Anza’ varieties of wheat grown in 3-inch square pots containing soil infested with Ggt. The infestation is accomplished by mixing the soil with an inoculum prepared by growing Ggt on ¼ strength potato dextrose agar (4.875 g potato dextrose agar, 5.0 g Bacto agar, 500 mL distilled, deionized water) in plates and using plugs from the plates to infest sterile oats (400 cc whole oats, 350 mL deionized water, autoclaved). After a one-month incubation period at room temperature, the oats are dried and mixed with the soil at 4% v/v. Four wheat seeds are placed on top of the soil in each pot. The test compounds are prepared as an 1:9 acetone/water v/v solution containing 0.18% Tween® 20 to provide a treatment rate of 0.5 mg active ingredient per pot, treated with 3 mL test solution per pot. Five pots are used for each treatment level and the controls, which are untreated, inoculated and non-inoculated pots. After one hour drying time, the seeds are covered with more of the appropriate soil and a layer of vermiculite. The pots are placed in a growth chamber and watered each day. After four weeks, each pot is evaluated for evidence of disease by examination of the seminal roots of each plant under a dissecting microscope. A 0 to 5 rating scale having the following meanings is used:
0=no runner hyphae or lesions present
1=runner hyphae and a few small lesions present on <10% of root system
2=runner hyphae and small lesions present on 10-25% of root system
3=runner hyphae and lesions present on 25-50% of root system
4=runner hyphae and many, large, coalescing lesions on >50% of root system
5=root system and culm completely inundated with lesions and runner hyphae
From each set of five replicates a high and low score is eliminated and a replicate mean is calculated by the average of the remaining three scores. This mean score is then compared to the untreated control score and a percent disease control is calculated.

[1] = tested on: Gaeumannomyces graminis var. tritici (Ggt); assay: In vitro Assay: mycelial growth of Ggt on minimal media agar plates containing test compound; type: cell-based; settings: dark, 19-20° C., 4 to 5 days, diameter of mycelial growth; for inhibition at 0.1 ppm / inhibition at 1 ppm / inhibition at 10 ppm: Gaeumannomyces graminis; for inhibition at 0.1 ppm: read-out: In vitro (ppm) 0.1, Percent Inhibition; for inhibition at 1 ppm: read-out: In vitro (ppm) 1, Percent Inhibition; for inhibition at 10 ppm: read-out: In vitro (ppm) 10, Percent Inhibition
How it was run: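 Compounds added from acetone stock into minimal (Czapek Dox) agar; plates inoculated with three 4-mm Ggt plugs, incubated in dark at 19-20° C for 4 to 5 days. Colony diameter measured; Percent Inhibition = [1-((treated mm −4)/(control mm −4))]×100.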

Compound	pest or weed control at 0.5 mg/pot (Ggt) [%]	inhibition at 0.1 ppm ([1]; 0.1 ppm in minimal media agar) [%]	inhibition at 1 ppm ([1]; 1 ppm in minimal media agar) [%]	inhibition at 10 ppm ([1]; 10 ppm in minimal media agar) [%]	In vivo, percent disease control (Ggt) [%]	In vitro (ppm) 0.1, Percent Inhibition ([1]; 0.1 ppm in minimal media agar) [%]	In vitro (ppm) 1, Percent Inhibition ([1]; 1 ppm in minimal media agar) [%]	In vitro (ppm) 10, Percent Inhibition ([1]; 10 ppm in minimal media agar) [%]
CC[C@@H](C)NC(=O)c1c(Cl)cccc1[Si](C)(C)C [Example 151, 2-Chloro-N-(1-methylpropyl)-6-(trimethylsilyl)benzamide, (r)-]	97	< 0	71	57	–	–	–	–
CCN(CC)C(=O)c1c(Cl)ccc(C)c1[Si](C)(C)C [Example 71, N,N-Diethyl-6-chloro-3-methyl-2-(trimethylsilyl)benzamide]	50	14	8	< 0	–	–	–	–
CCCNC(=O)c1c(Cl)cccc1[Si](C)(C)C [Example 26, 2-Chloro-N-propyl-6-(trimethylsilyl)benzamide]	99	95	95	97	–	–	–	–
CCNC(=O)c1c([Si](C)(C)C)ccc(C(F)F)c1Cl [Example 224, 2-Chloro-3-(difluoromethyl)-N-ethyl-6-(trimethylsilyl)benzamide]	21	< 0	27	93	–	–	–	–
CCN(CC)C(=O)c1c(Br)ccc(F)c1[Si](C)(C)C [Example 37, 6-Bromo-N,N-diethyl-3-fluoro-2-(trimethylsilyl)benzamide]	83	17	63	87	–	–	–	–
CCNC(=O)c1c(Cl)cccc1[Si](C)(C)C(C)C [Example 180, 2-Chloro-6-[dimethyl(1-methylethyl)silyl]-N-ethylbenzamide]	96	85	82	90	–	–	–	–
CCNC(=O)c1c(Cl)ccc(Cl)c1[Si](C)(C)C [Example 200, 3,6-Dichloro-N-ethyl-2-(trimethylsilyl)benzamide]	65	92	100	100	–	–	–	–
CC[C@H](C)NC(=O)c1c(Cl)cccc1[Si](C)(C)C [Example 152, 2-Chloro-N-(1-methylpropyl)-6-(trimethylsilyl)benzamide, (s)-]	54	< 0	71	86	–	–	–	–
CCNC(=O)c1c(Cl)cccc1NC(C)(C)C [Example 192, 2-Chloro-6-[(1,1-dimethylethyl)amino]-N-ethylbenzamide]	99	86	95	95	–	–	–	–
CCNC(=O)c1c(C)cccc1C(C)(C)C [Example 8, 2-(1,1-Dimethylethyl)-N-ethyl-6-methylbenzamide]	85	19	97	100	–	–	–	–
CCNC(=O)c1c([Si](C)(C)C)ccc(Br)c1Cl [Example 220, 3-Bromo-2-chloro-N-ethyl-6-(trimethylsilyl)benzamide]	97	75	100	100	–	–	–	–
CN(C)NC(=O)c1c(Cl)cccc1[Si](C)(C)C [Example 99, 2-Chloro-6-(trimethylsilyl)-2,2-dimethylhydrazide-benzoic acid]	–	–	–	–	59	5	72	95
C=CCONC(=O)c1c([Si](C)(C)C)ccc(Cl)c1Cl [Example 204, 2,3-Dichloro-N-(2-propenyloxy)-6-(trimethylsilyl)benzamide]	43	< 0	< 0	74	–	–	–	–
CCN(CC)C(=O)c1cccc(F)c1[Si](C)(C)C [Example 4, N,N-Diethyl-3-fluoro-2-(trimethylsilyl)benzamide]	54	< 0	< 0	57	–	–	–	–
CCN(SC)C(=O)c1c(Cl)cccc1[Si](C)(C)C [Example 172, 2-Chloro-N-ethyl-N-(methylthio)-6-(trimethylsilyl)benzamide]	99	94	100	100	–	–	–	–
CCN(C(=O)c1c(Cl)cccc1[Si](C)(C)C)C(OC)C(C)(C)C (stereo not drawn) [Example 201, 2-Chloro-N-ethyl-N-(1-methoxy-2,2-dimethylpropyl)-6-(trimethylsilyl)benzamide]	65	31	50	100	–	–	–	–
CN(Cc1ccc(C(F)(F)F)cc1)C(=O)c1c(Cl)cccc1[Si](C)(C)C [Example 103, 2-Chloro-N-methyl-N-[[4-(trifluoromethyl)phenyl]-methyl]-6-(trimethylsilyl)-benzamide]	26	< 0	55	92	–	–	–	–
C[Si](C)(C)c1cccc(Cl)c1C(=O)NCCO [Example 27, 2-Chloro-N-(2-hydroxyethyl)-6-(trimethylsilyl)benzamide]	33	15	13	64	–	–	–	–
CCNC(=O)c1c([Si](C)(C)C)ccc(CO)c1Cl [Example 227, 2-Chloro-N-ethyl-3-(hydroxymethyl)-6-(trimethylsilyl)benzamide]	34	36	68	100	–	–	–	–
CCCN(C(=O)c1c(Cl)cccc1[Si](C)(C)C)C(C)C [Example 95, 2-Chloro-N-(1-methylethyl)-N-propyl-6-(trimethylsilyl)benzamide]	63	< 0	62	100	–	–	–	–
CCNC(=O)c1cc([Si](C)(C)C)sc1[Si](C)(C)C [Example 269, N-Ethyl-2,5-bis(trimethylsilyl)-3-thiophenecarboxamide]	4	< 0	91	100	–	–	–	–
CCSC(=O)c1c(Cl)cccc1[Si](C)(C)C [Example 77, 2-Chloro-6-(trimethylsilyl)benzenecarbothioic acid, S-ethyl ester]	< 0	13	47	100	–	–	–	–
CCNC(=O)c1c([Si](C)(C)C)sc(C)c1C [Example 271, 4,5-Dimethyl-N-ethyl-2-(trimethylsilyl)-3-thiophenecarboxamide]	97	95	100	100	–	–	–	–
CCNC(=O)c1c(Cl)cccc1[Si](C)(C)C [Example 45, 2-Chloro-N-ethyl-6-(trimethylsilyl)benzamide]	97	100	100	100	–	–	–	–
CCCN(CCC)C(=O)c1c(Cl)cccc1[Si](C)(C)C [Example 36, 2-Chloro-N,N-dipropyl-6-(trimethylsilyl)benzamide]	88	26	69	100	–	–	–	–
CCNC(=O)c1c(Cl)ccc([N+](=O)[O-])c1[Si](C)(C)C [Example 215, 6-Chloro-N-ethyl-3-nitro-2-(trimethylsilyl)benzamide]	57	46	96	100	–	–	–	–
CCNC(=O)c1cccc(F)c1[Si](C)(C)C [Example 12, N-Ethyl-3-fluoro-2-(trimethylsilyl)benzamide]	95	29	83	100	–	–	–	–

Source: patent US6410558B1, “Fungicides for the control of take-all disease of plants” (Monsanto Technology LLC, priority 1991, dated 2002)
